A value given as a limit tells only on which side of the number the result lay.

This assay deals with T1, Human eIF4E (Homo sapiens, UniProt P06730).
T1 construct: Human eIF4E (aa 28-217) with a C-terminal His-tag; made in house
T1 sequence (P06730 28-217): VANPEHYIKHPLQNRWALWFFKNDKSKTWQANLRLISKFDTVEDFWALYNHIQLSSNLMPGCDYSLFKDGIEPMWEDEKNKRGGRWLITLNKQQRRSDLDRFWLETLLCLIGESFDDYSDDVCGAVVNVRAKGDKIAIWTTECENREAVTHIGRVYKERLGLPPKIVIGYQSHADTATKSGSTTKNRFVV
As to the kind of experiment: Human eIF4E/4G2 binding assay (TR-FRET). The settings on record: eIF4E (aa 28-217) with biotin labeled 4G2 peptide. As to the method: Human eIF4E (aa 28-217) with a C-terminal His-tag was expressed in E. coli in inclusion bodies. The protein was solubilized with 8 M urea and purified under denaturing conditions using nickel-charged HisTrap HP columns (GE Healthcare). The purified protein was then refolded by diluting in 20 mM Hepes pH 7.0, 0.5 M NaCl, 1 mM DTT, 1 mM EDTA, 0.5 M arginine plus 6 M urea, and then dialyzing overnight into the same buffer without the urea. The protein was further dialyzed into 20 mM Hepes, pH 6.5, 50 mM NaCl, 1 mM EDTA, 1 mM DTT, and concentrated using Hitrap SP sepharose FF columns (GE Healthcare). The concentrated protein was dialyzed into 20 mM Hepes, pH 7.0, 0.5M NaCl, 5 mM DTT and 10% glycerol, and stored at −80° C. until use.
Test compounds (3.43 mM stock in DMSO) were diluted 2-fold in series in DMSO (10 concentration points). Compound solutions (1.2 μl/well) were added into black 384-well polypropylene microplates (Matrix, Thermal Scientific). Twenty-two microliters per well of Assay Buffer (50 mM NaPi, pH 6.5, 50 mM KCl, 1 mM DTT and 0.5 mg/ml gamma globulin) and eight microliters per well of 82.5 nM purified eIF4E in Assay Buffer were added. The samples were incubated at room temperature (20-23° C.) for 15 min. Biotin labeled 4G2 peptide (Ac-Lys-Gln-Tyr-Asp-Arg-Glu-Phe-Leu-Leu-Asp-Phe-Gln-Phe-Met-Pro-Lys(Aha-Bio)-NH2, 1.75 μM stock in DMSO) was diluted to 0.14 μM in Assay Buffer (without DTT) and 5 μl/well was added. The samples were incubated at room temperature for 15 min. Five microliters per well of 6.4 nM Eu-streptavidin (Eu-SA, Perkin Elmer) and 80 nM Allophycocyanin (APC)-anti His antibody (Columbia Biosciences) in Assay Buffer (without DTT) were then added and the samples were incubated at room temperature for 20 min.
Assay signals were monitored by reading excitation at 340 nm and emission fluorescence at 615 nm and 665 nm on an Envision reader (Perkin Elmer). Normalized TR-FRET (time-resolved fluorescence resonance energy transfer) assay signal (Rn) was calculated by the formula: Rn═[(A−Ba−C×D)/(D−Bd)]×(Dc−Bd) • Where A is the fluorescence intensity of the sample at 665 nm, • D is the fluorescence intensity of the sample at 615 nm, • Ba and Bd are plate backgrounds at 665 nm and 615 nm, respectively, • Dc is the fluorescence intensity of 0.78 nM Eu-SA in the assay buffer at 615 nm • The cross-talk factor (C) is determined by the following formula: C=(Ac−Ba)/(Dc−Bd) • Where Ac is the fluorescence intensity of 0.78 nM Eu-SA in the assay buffer at 665 nm.
IC50 values were calculated using xLFit program (IDBS).
Regarding `CCCC(CNc1nc(-c2ccc(-c3ccc(F)cc3)cc2)c(-c2cccnc2)s1)C(=O)O` (stereo not shown) [Compound I-91], the IC50 is > 25 µM. With `CC(CC(=O)O)Nc1nc(-c2ccc(-c3ccc(F)cc3)cc2)c(-c2cncnc2)s1` (stereo not shown) [Compound I-96] the figure was > 25 µM; with `O=C(O)C1CCN(c2nc(-c3ccc(Oc4ccccc4)cc3)c(-c3cccc4[nH]ccc34)s2)C1` (stereo not shown) [Compound I-194], 5 to 25 µM. Compound `CC1(C(=O)O)CN(c2nc(-c3ccc(Oc4ccccc4)cc3)c(-c3cccc4[nH]ccc34)s2)C1` [Compound I-166] had an IC50 of 5 to 25 µM.

Regarding `CCCC(CNc1nc(-c2ccc(-c3cnco3)cc2)c(-c2cccc3[nH]ccc23)s1)C(=O)O` (stereo not shown) [Compound I-21], the 50% inhibitory concentration (IC50) was > 25 µM. In the case of `O=C(O)C1CCN(c2nc(-c3ccc(-c4cnco4)cc3)c(-c3ccccc3)s2)C1` (stereo not shown) [Compound I-40] it was > 25 µM. In the case of `O=C(O)C1CCN(c2nc(-c3ccc(-c4cnco4)cc3)c(-c3cncnc3)s2)CC1` [Compound I-53] it was > 25 µM; in that of `O=C(O)C1CCN(c2nc(-c3ccc(-c4ccc(F)cc4)cc3)c(-c3cccc4[nH]ccc34)s2)CC1` [Compound I-139], 5 to 25 µM. Consider `O=C(O)C1CN(c2nc(-c3ccc(-c4cnco4)cc3)c(-c3cncnc3)s2)C1` [Compound I-10], for which the half-maximal inhibitory concentration (IC50) is > 25 µM. On to `O=C(O)CC1CCCN1c1nc(-c2ccc(-c3cnco3)cc2)c(-c2ccccc2)s1` (stereo not shown) [Compound I-36], for which the IC50 is > 25 µM. With `CCCC(CNc1nc(-c2ccc(Oc3ccccc3)cc2)cs1)C(=O)O` (stereo not shown) [Compound I-167], the IC50 is > 25 µM.

`CC(C)C(CC(=O)O)Nc1nc(-c2ccc(-c3ccc(F)cc3)cc2)c(-c2cccnc2)s1` (stereo not shown) [Compound I-68]: the IC50 was > 25 µM. As to `CCCC(CNc1nc(-c2ccc(-c3cnco3)cc2)cs1)C(=O)O` (stereo not shown) [Compound I-17], the IC50 was > 25 µM. In the case of `O=C(O)C1CCCN(c2nc(-c3ccc(-c4cnco4)cc3)c(-c3ccccc3)s2)C1` (stereo not shown) [Compound I-31] it was > 25 µM. In the case of `CC1(C(=O)O)CN(c2nc(-c3ccc(-c4ccc(F)cc4)nc3)c(-c3cncnc3)s2)C1` [Compound I-84] it was > 25 µM; in that of `O=C(O)C1CCN(c2nc(-c3ccc(Oc4ccccc4)cc3)c(-c3cccnc3)s2)C1` (stereo not shown) [Compound I-193], > 25 µM; in that of `CC(CNc1nc(-c2ccc(-c3ccc(F)cc3)cc2)c(Br)s1)C(=O)O` (stereo not shown) [Compound I-100], 5 to 25 µM.

In turn, `CC(C)(CNc1nc(-c2ccc(-c3ccc(F)cc3)cc2)c(-c2cccnc2)s1)C(=O)O` [Compound I-74] yielded an IC50 of 5 to 25 µM. Regarding `O=C(O)CC1CCCN1c1nc(-c2ccc(-c3ccc(F)cc3)cc2)c(-c2ccccc2)s1` (stereo not shown) [Compound I-111], the IC50 was < 5 µM.

With `O=C(O)C1(CNc2nc(-c3ccc(-c4ccc(F)cc4)cc3)c(-c3cccc4[nH]ccc34)s2)CC1` [Compound I-125], the 50% inhibitory concentration (IC50) was < 5 µM.

As for `CCCC(CNc1nc(-c2ccc(Oc3ccccc3)cc2)c(-c2cncnc2)s1)C(=O)O` (stereo not shown) [Compound I-169], the IC50 is > 25 µM. With `O=C(O)C1CCN(c2nc(-c3ccc(-c4cnco4)cc3)c(-c3cccnc3)s2)C1` (stereo not shown) [Compound I-42] the figure was > 25 µM. In the case of `O=C(O)C1CCN(c2nc(-c3ccc(Oc4ccccc4)cc3)c(-c3cccc4[nH]ccc34)s2)CC1` [Compound I-212] it was 5 to 25 µM; in that of `CC(CNc1nc(-c2ccc(-c3cnco3)cc2)c(-c2ccccc2)s1)C(=O)O` (stereo not shown) [Compound I-27], > 25 µM; in that of `O=C(O)C1CC(CNc2nc(-c3ccc(-c4ccc(F)cc4)cc3)c(Br)s2)C1` (stereo not shown) [Compound I-127], 5 to 25 µM. In the case of `O=C(O)C1(CNc2nc(-c3ccc(-c4ccc(F)cc4)cc3)c(-c3cncnc3)s2)CC1` [Compound I-123] it was > 25 µM; in that of `O=C(O)C1CCCN(c2nc(-c3ccc(-c4ccc(F)cc4)cc3)c(-c3ccccc3)s2)C1` (stereo not shown) [Compound I-106], < 5 µM. In the case of `CC(CC(=O)O)Nc1nc(-c2ccc(-c3cnco3)cc2)c(-c2ccccc2)s1` (stereo not shown) [Compound I-22], the IC50 was > 25 µM.

As for `CC(CNc1nc(-c2ccc(-c3ccc(F)cc3)cc2)c(-c2cccnc2)s1)C(=O)O` (stereo not shown) [Compound I-103], the IC50 is > 25 µM. In the case of `O=C(O)C1CCCN(c2nc(-c3ccc(-c4cnco4)cc3)c(-c3cncnc3)s2)C1` (stereo not shown) [Compound I-32] it was > 25 µM; in that of `CC(C)C(CC(=O)O)Nc1nc(-c2ccc(-c3ccc(F)cc3)cc2)c(-c2cncnc2)s1` (stereo not shown) [Compound I-67], > 25 µM. Consider `O=C(O)C1CCN(c2nc(-c3ccc(Oc4ccccc4)cc3)cs2)C1` (stereo not shown) [Compound I-190], for which the half-inhibitory concentration (IC50) is > 25 µM. In the case of `CC(CNc1nc(-c2ccc(Oc3ccccc3)cc2)cs1)C(=O)O` (stereo not shown) [Compound I-176] it was > 25 µM. In the case of `O=C(O)[C@@H]1CCCN(c2nc(-c3ccc(-c4ccc(F)cc4)cc3)c(-c3ccccc3)s2)C1` [Compound I-223] it was < 5 µM; in that of `O=C(O)C1CC(CNc2nc(-c3ccc(-c4ccc(F)cc4)cc3)c(-c3cccnc3)s2)C1` (stereo not shown) [Compound I-130], > 25 µM; in that of `CC(CNc1nc(-c2ccc(Oc3ccccc3)cc2)c(-c2cncnc2)s1)C(=O)O` (stereo not shown) [Compound I-178], > 25 µM. With `O=C(O)C1CN(c2nc(-c3ccc(Oc4ccccc4)cc3)c(-c3cncnc3)s2)C1` [Compound I-159] the figure was > 25 µM; with `O=C(O)C1CCCN(c2nc(-c3ccc(-c4ccc(F)cc4)cc3)c(-c3cccnc3)s2)C1` (stereo not shown) [Compound I-108], 5 to 25 µM. For the compound `O=C(O)C1CC(CNc2nc(-c3ccc(-c4ccc(F)cc4)cc3)c(-c3ccccc3)s2)C1` (stereo not shown) [Compound I-128], the IC50 was < 5 µM.

With `O=C(O)C1CN(c2nc(-c3ccc(-c4ccc(F)cc4)cc3)c(-c3cccnc3)s2)C1` [Compound I-79], the half-inhibitory concentration (IC50) is > 25 µM. For the compound `CC1(C(=O)O)CCCN(c2nc(-c3ccc(Oc4ccccc4)cc3)c(-c3cccc4[nH]ccc34)s2)C1` (stereo not shown) [Compound I-220], the IC50 is < 5 µM. With `CC1(C(=O)O)CCCN(c2nc(-c3ccc(-c4ccc(F)cc4)cc3)c(-c3cccc4[nH]ccc34)s2)C1` (stereo not shown) [Compound I-147] the figure was < 5 µM; with `O=C(O)C1(CNc2nc(-c3ccc(-c4ccc(F)cc4)cc3)c(-c3cccnc3)s2)CC1` [Compound I-124], > 25 µM; with `O=C(O)C1(CNc2nc(-c3ccc(-c4cnco4)cc3)c(-c3cccnc3)s2)CC1` [Compound I-46], > 25 µM. Take `CC(C)[C@@H](CC(=O)O)Nc1nc(-c2ccc(-c3ccc(F)cc3)cc2)c(Br)s1` [Compound I-221]: the 50% inhibitory concentration (IC50) was < 5 µM.

As for `CC(CC(=O)O)Nc1nc(-c2ccc(-c3ccc(F)cc3)cc2)c(Br)s1` (stereo not shown) [Compound I-94], the IC50 was in the range of 5 to 25 µM. In the case of `O=C(O)C1CN(c2nc(-c3ccc(Oc4ccccc4)cc3)c(-c3cccnc3)s2)CCO1` (stereo not shown) [Compound I-215] it was > 25 µM; in that of `CC(CC(=O)O)Nc1nc(-c2ccc(-c3cnco3)cc2)c(-c2cccnc2)s1` (stereo not shown) [Compound I-24], > 25 µM. As for `CC(CC(=O)O)Nc1nc(-c2ccc(-c3ccc(F)cc3)cc2)c(-c2cccc3[nH]ccc23)s1` (stereo not shown) [Compound I-98], the IC50 was in the range of 5 to 25 µM. In the case of `O=C(O)C1CCN(c2nc(-c3ccc(-c4ccc(F)cc4)cc3)c(-c3cncnc3)s2)C1` (stereo not shown) [Compound I-117] it was > 25 µM; in that of `CC(CNc1nc(-c2ccc(Oc3ccccc3)cc2)c(-c2ccccc2)s1)C(=O)O` (stereo not shown) [Compound I-177], 5 to 25 µM; in that of `CC1(C(=O)O)CCCN(c2nc(-c3ccc(-c4cnco4)cc3)c(-c3cccc4[nH]ccc34)s2)C1` (stereo not shown) [Compound I-63], > 25 µM. In the case of `CC(CC(=O)O)Nc1nc(-c2ccc(Oc3ccccc3)cc2)c(-c2cccnc2)s1` (stereo not shown) [Compound I-174] it was > 25 µM; in that of `CCCC(CNc1nc(-c2ccc(-c3ccc(F)cc3)cc2)c(-c2ccccc2)s1)C(=O)O` (stereo not shown) [Compound I-89], < 5 µM; in that of `O=C(O)C1CC(CNc2nc(-c3ccc(-c4ccc(F)cc4)cc3)c(-c3cccc4[nH]ccc34)s2)C1` (stereo not shown) [Compound I-131], 5 to 25 µM.
